Results: ChEMBL document CHEMBL3044562, “Survival and developmental impairment induced by the trypsin inhibitor bis-benzamidine in the velvetbean caterpillar (Anticarsia gemmatalis)” (Crop Prot, 2011)
Activity calls are given as the source filed them.

Tests used:
Format in all cases: functional, organism-based
Anticarsia gemmatalis [1] = test: Insecticidal activity against Anticarsia gemmatalis (velvetbean caterpillar) assessed as reduction in survival time at over 150 ppm
Anticarsia gemmatalis [2] = test: Insecticidal activity against Anticarsia gemmatalis (velvetbean caterpillar) assessed as reduction in survival time at > 100 ppm
Anticarsia gemmatalis [3] = test: Insecticidal activity against Anticarsia gemmatalis (velvetbean caterpillar) assessed as specific amidolytic and esterolytic activity in midgut at 9.5 ppm
Anticarsia gemmatalis [4] = test: Insecticidal activity against Anticarsia gemmatalis (velvetbean caterpillar) assessed as sharp decline in proteolytic activity in midgut using L-BApNA and L-TAME at 9.5 ppm
Anticarsia gemmatalis [5] = test: Increase in protein digestibility in Anticarsia gemmatalis (velvetbean caterpillar) assessed as double the consumption at 76 ppm
Anticarsia gemmatalis [6] = test: Effect on diet consumption in Anticarsia gemmatalis (velvetbean caterpillar) assessed as double the consumption at 76 ppm relative to control
Anticarsia gemmatalis [7] = test: Insecticidal activity against Anticarsia gemmatalis (velvetbean caterpillar) assessed as decrease in pupa weight upto 80 ppm
Anticarsia gemmatalis [8] = test: Insecticidal activity against Anticarsia gemmatalis (velvetbean caterpillar) assessed as prolongation of larval development upto 76 ppm
Anticarsia gemmatalis [9] = test: Insecticidal activity against Anticarsia gemmatalis (velvetbean caterpillar) assessed as reduction in survival at > 76 ppm for more than 15 days

N=C(N)c1ccc(/N=N/Nc2ccc(C(=N)N)cc2)cc1
active: inhibition (Anticarsia gemmatalis [1]) | inhibition (Anticarsia gemmatalis [2]) | inhibition (Anticarsia gemmatalis [3]) | inhibition (Anticarsia gemmatalis [4]) | Activity (Anticarsia gemmatalis [5]) | Activity (Anticarsia gemmatalis [6]) | inhibition (Anticarsia gemmatalis [7]) | Activity (Anticarsia gemmatalis [8]) | inhibition (Anticarsia gemmatalis [9])
